Legend:
Experiment in all cases: Microbiological challenge testing in BPW broth, graded subculture counts
Format in all cases: cell-based
[1] = test system: Aeromonas sp. Wild type
Outline: (§1)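 Challenge substrates of BPW plus 1% dextrose containing the test material (w/v) or broth alone were inoculated to 10^5–10^6 CFU/mL. Bacteria had been precultured in dextrose TSB at 35 °C for at least 96 h. CFU/mL came from plate count × dilution factor on PCA after ≥48 h at 35 °C.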

[2] = test system: Staphylococcus aureus ATCC 25923; conditions: S. aureus
Outline: as §1

[3] = test system: Bacillus subtilis Wild type
Outline: as §1

[4] = test system: Burkholderia cepacia Wild type; conditions: B. cepacia
Outline: as §1

[5] = test system: Streptococcus mutans ATCC 35668
Outline: as §1

[6] = test system: Escherichia coli ATCC 25922; conditions: E. Coli
Outline: as §1

[7] = test system: Proteus vulgaris Wild type
Outline: as §1

CCCCOCCO [EB, 2-butoxyethanol]
Aeromonas sp growth grade, 3 day ([1]; 2.5% weight/volume): 4 (1000 to 10,000 colonies countable (thus 10,000 CFU/mL to 100,000 CFU/mL))
Aeromonas sp growth grade, 14 day ([1]; 2.5% weight/volume): 4 (1000 to 10,000 colonies countable (thus 10,000 CFU/mL to 100,000 CFU/mL))
Aeromonas sp growth grade, 30 day ([1]; 2.5% weight/volume): 4 (1000 to 10,000 colonies countable (thus 10,000 CFU/mL to 100,000 CFU/mL))
Aeromonas sp growth grade, 3 day ([1]; 5.0% weight/volume): 1 (0 to 51 colonies counted (thus 10 to 510 CFU/mL based on 0.1-mL sample))
Aeromonas sp growth grade, 14 day ([1]; 5.0% weight/volume): 0
Aeromonas sp growth grade, 30 day ([1]; 5.0% weight/volume): 0
Grade ([2]; 2.5% (wt/vol), 3 day): 4 (1000 to 10,000 colonies countable (thus 10,000 CFU/mL to 100,000 CFU/mL))
Grade ([2]; 2.5% (wt/vol), 14 day): 4 (1000 to 10,000 colonies countable (thus 10,000 CFU/mL to 100,000 CFU/mL))
Grade ([2]; 2.5% (wt/vol), 30 day): 4 (1000 to 10,000 colonies countable (thus 10,000 CFU/mL to 100,000 CFU/mL))
Grade ([2]; 5.0% (wt/vol), 3 day): 2 (52 to 100 colonies counted (thus 520 to 1000 CFU/mL))
Grade ([2]; 5.0% (wt/vol), 14 day): 0
Grade ([2]; 5.0% (wt/vol), 30 day): 0
B. subtillis growth grade, 3 day ([3]; 2.5% weight/volume): 4 (1000 to 10,000 colonies countable (thus 10,000 CFU/mL to 100,000 CFU/mL))
B. subtillis growth grade, 14 day ([3]; 2.5% weight/volume): 4 (1000 to 10,000 colonies countable (thus 10,000 CFU/mL to 100,000 CFU/mL))
B. subtillis growth grade, 30 day ([3]; 2.5% weight/volume): 4 (1000 to 10,000 colonies countable (thus 10,000 CFU/mL to 100,000 CFU/mL))
B. subtillis growth grade, 3 day ([3]; 5.0% weight/volume): 1 (0 to 51 colonies counted (thus 10 to 510 CFU/mL based on 0.1-mL sample))
B. subtillis growth grade, 14 day ([3]; 5.0% weight/volume): 0
B. subtillis growth grade, 30 day ([3]; 5.0% weight/volume): 0
Grade ([4]; 2.5% (wt/vol), 3 day): 4 (1000 to 10,000 colonies countable (thus 10,000 CFU/mL to 100,000 CFU/mL))
Grade ([4]; 2.5% (wt/vol), 14 day): 4 (1000 to 10,000 colonies countable (thus 10,000 CFU/mL to 100,000 CFU/mL))
Grade ([4]; 2.5% (wt/vol), 30 day): 4 (1000 to 10,000 colonies countable (thus 10,000 CFU/mL to 100,000 CFU/mL))
Grade ([4]; 5.0% (wt/vol), 3 day): 0
Grade ([4]; 5.0% (wt/vol), 14 day): 0
Grade ([4]; 5.0% (wt/vol), 30 day): 0
S. mutans growth grade, 3 day ([5]; 2.5% weight/volume): 4 (1000 to 10,000 colonies countable (thus 10,000 CFU/mL to 100,000 CFU/mL))
S. mutans growth grade, 13 day ([5]; 2.5% weight/volume): 4 (1000 to 10,000 colonies countable (thus 10,000 CFU/mL to 100,000 CFU/mL))
S. mutans growth grade, 30 day ([5]; 2.5% weight/volume): 4 (1000 to 10,000 colonies countable (thus 10,000 CFU/mL to 100,000 CFU/mL))
S. mutans growth grade, 3 day ([5]; 5.0% weight/volume): 0
S. mutans growth grade, 13 day ([5]; 5.0% weight/volume): 0
S. mutans growth grade, 30 day ([5]; 5.0% weight/volume): 0
Grade ([6]; 2.5% (wt/vol), 3 day): 4 (1000 to 10,000 colonies countable (thus 10,000 CFU/mL to 100,000 CFU/mL))
Grade ([6]; 2.5% (wt/vol), 14 day): 4 (1000 to 10,000 colonies countable (thus 10,000 CFU/mL to 100,000 CFU/mL))
Grade ([6]; 2.5% (wt/vol), 30 day): 4 (1000 to 10,000 colonies countable (thus 10,000 CFU/mL to 100,000 CFU/mL))
Grade ([6]; 5.0% (wt/vol), 3 day): 1 (0 to 51 colonies counted (thus 10 to 510 CFU/mL based on 0.1-mL sample))
Grade ([6]; 5.0% (wt/vol), 14 day): 0
Grade ([6]; 5.0% (wt/vol), 30 day): 0
P. vulgaris growth grade, 3 day ([7]; 2.5% weight/volume): 4 (1000 to 10,000 colonies countable (thus 10,000 CFU/mL to 100,000 CFU/mL))
P. vulgaris growth grade, 13 day ([7]; 2.5% weight/volume): 4 (1000 to 10,000 colonies countable (thus 10,000 CFU/mL to 100,000 CFU/mL))
P. vulgaris growth grade, 30 day ([7]; 2.5% weight/volume): 4 (1000 to 10,000 colonies countable (thus 10,000 CFU/mL to 100,000 CFU/mL))
P. vulgaris growth grade, 3 day ([7]; 5.0% weight/volume): 0
P. vulgaris growth grade, 13 day ([7]; 5.0% weight/volume): 0
P. vulgaris growth grade, 30 day ([7]; 5.0% weight/volume): 0

— US20100160454A1, “ANTIMICROBIAL AGENTS, COMPOSITIONS AND PRODUCTS CONTAINING THE SAME, AND METHODS OF USING THE COMPOSITIONS AND PRODUCTS” (Eastman Chemical Company, priority 2008, published 2010)
